Results: PMC6606642, “Inhibition of Cathepsin S Reduces Lacrimal Gland Inflammation and Increases Tear Flow in a Mouse Model of Sjögren’s Syndrome” (Scientific Reports, 2019)

Target: Cathepsin S (human recombinant CTSS) (Homo sapiens, UniProt P25774)
Experiment: fluorescence CTSS activity assay kit with recombinant enzyme
Format: biochemical

Cathepsin S (human recombinant CTSS), sequence (P25774 115-331): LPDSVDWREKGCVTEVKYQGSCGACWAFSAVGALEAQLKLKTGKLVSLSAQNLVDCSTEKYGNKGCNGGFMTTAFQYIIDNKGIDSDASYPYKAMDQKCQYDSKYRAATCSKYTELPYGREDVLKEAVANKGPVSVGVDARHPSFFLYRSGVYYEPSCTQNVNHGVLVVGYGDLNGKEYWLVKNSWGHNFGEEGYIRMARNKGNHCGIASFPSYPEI

| IC50 [nM] | Structure (SMILES) |
| --- | --- |
| 172 ± 32.7 | CC(C)C[C@H](NC(=O)[C@H](Cc1ccccc1)NC(=O)OCc1ccccc1)C(=O)C=O [Z-FL, Z-FL-COCHO] |
| 262 ± 59.3 | CC(C)C[C@H](NC(=O)[C@H](Cc1ccccc1)NC(=O)OCc1ccccc1)C(=O)C=O [Z-FL-hydrate, Z-FL-COCHO-hydrate] |
